The values below come from patent US8846329B1, “Microorganisms for producing organic acids” (Wisconsin Alumni Research Foundation, priority 2012, dated 2014).

Values after ≈ are worked out from the molar mass of the structure shown. Like-named read-outs stand apart in the source and are kept apart here. Where only a bound is given, the exact number is not on record here.

In series [1] the test system is Synechococcus sp. PCC 7942. Description: Minimum inhibitory concentration of organic acids. The class given is cell-based. Particulars: for MIC: Synechococcus; for Minimum inhibitory concentration: Table 3. From the text:
(§1) One aspect of the increased tolerance to organic acids is an increase in the minimal inhibitory concentration (MIC) of a particular organic acid compared to a corresponding microorganism. MIC is the lowest concentration of an agent that will inhibit growth of a microorganism. An MIC can be determined by titrating the agent in the growth medium of the microorganism. The lowest concentration of the agent in which the microorganism is no longer able to grow is the MIC. Methods of culturing microorganisms and of detecting their growth are well known in the art and are not discussed in detail herein.
(§2) Because of this, the toxicity of organic acids generally increases with the hydrophobicity of the compound [35]. The minimum inhibitory concentrations (MIC) for PCC 7002, Synechococcus sp. PCC 7942, and Synechocystis sp. PCC 6803 were determined for acrylic acid, 3HP, and propionic acid at a pH of about 8 (Table 1). […] The low MIC for acrylic acid explains why cultures grown with DMSP become growth inhibited. Cultures with DMSP only show growth inhibition when the accumulating acrylic acid concentration reaches inhibitory concentrations.

For series [2], the system named is Synechocystis sp. PCC 6803. As to the kind of experiment: Minimum inhibitory concentration of organic acids. In kind it is cell-based. Particulars: for MIC: Synechocystis; for Minimum inhibitory concentration: Table 3.
Text: as §1, §2
(§3) Homologous genes were identified in the cyanobacteria Synechocystis sp. PCC 6803 (s110542; SEQ ID NOS:3 and 4) and Synechococcus sp. PCC 7942 (SYNPCC7942—1342; SEQ ID NOS:5 and 6). […] When selecting for growth of Synechocystis sp. PCC 6803 on 50 μM acrylic acid, the mutation frequency was 2×10^−6.

For series [3], the system named is Synechococcus sp. PCC 7002. As to the kind of experiment: Minimum inhibitory concentration of organic acids / growth inhibition. Particulars: for MIC: Synechococcus; for Minimum inhibitory concentration: Table 3. In kind it is cell-based.
Text: as §1
(§4) The minimum inhibitory concentrations (MIC) for PCC 7002, Synechococcus sp. PCC 7942, and Synechocystis sp. PCC 6803 were determined for acrylic acid, 3HP, and propionic acid at a pH of about 8 (Table 1).

The subject of a further series is PCC 6803 sll0542::KmR. As to the kind of experiment: Minimum inhibitory concentration, deletion strain. In kind it is cell-based, Synechocystis sp. PCC 6803. Particulars: Synechocystis; Table 3. On the procedure: (§5) Deletion and complementation studies were performed in various Synechococcus spp. and Synechocystis spp. Replacement of the gene acsA in Synechococcus sp. […] An identical level of increase was observed when acsA was replaced with a 20 base-pair barcode sequence. This phenotype was complemented in an acsA deletion strain by expression of acsA under the native promoter in another locus on the chromosome (glpK).
as §3

The next series deals with PCC 7002 acsA::aadA. As to the kind of experiment: microbe, parasite or virus in culture. In kind it is cell-based, Synechococcus sp. PCC 7002. Particulars: for Increase in MIC on functional deletion of the acsA gene product: Synechococcus sp. PCC 7002, pH of about 8. On the procedure: This hypothesis was tested by creating a knockout mutant of the acsA gene. This knockout was created by transforming wild type PCC 7002 with a DNA construct that would replace the acsA gene with an antibiotic resistance marker through homologous recombination. The resulting mutant, ΔacsA, was challenged with concentrations of acrylic acid, 3HP, and propionic acid above WT PCC 7002 MIC levels.
Deletion and complementation studies were performed in various Synechococcus spp. and Synechocystis spp. Replacement of the gene acsA in Synechococcus sp.

In series [4] the test system is PCC 7002 acsA:BC glpK::acsA aadA. Description: Minimum inhibitory concentration, acsA complementation strain. The class given is cell-based, Synechococcus sp. PCC 7002. Particulars: Synechococcus, read-out: Minimum inhibitory concentration. On the procedure: as §5
A further series relates to AcsA. Description: Acyl-CoA ligase activity assay. Particulars: 2 mM organic acid, 500 nM AcsA, CoA consumed in 4 min relative to acetate. In kind it is biochemical, Synechococcus sp. PCC 7002. How it is done: Acyl-CoA ligase purification: Escherichia coli BL21 containing plasmid pET28b with acsA were grown in 50 mL of LB to an OD600 nm of 0.6 and induced with 1 mM IPTG. The induced culture was shaken at 37° C. for 3 hrs. The culture was centrifuged and the resulting cell pellet was frozen at −20° C. The cell pellet was processed with Novagen BugBuster Protein Extraction Reagent (Part No. 70584-3). The resulting soluble protein fraction was used for His-tag purification using Ni-NTA agarose beads (Qiagen) and Pierce 0.8-mL centrifugation columns (Part No. 89868). Washes were done with 50 mM NaH2PO4, 300 mM NaCl, and 30 mM imidizole pH 8.0. The his-tagged protein was eluted with 50 mM NaH2PO4, 300 mM NaCl, and 250 mM imidizole pH 8.0. The insoluble fraction from the protein extraction was washed twice with BugBuster reagent followed by incubation with 400 μL 8M urea, 100 mM Tris-HCl, and 100 mM β-mercaptoethanol pH 8.2 for 30 min. The resulting solution was centrifuged at 16,000×g and the supernatant was collected. Protein fractions were run on a SDS-PAGE gel. His-tag purified protein fractions used in the acyl-CoA ligase assay were concentrated and buffered exchanged using an Amicon Ultra-4 centrifugation column. The buffer used for enzyme storage contained 0.1M NaH2PO4, 1 mM EDTA, and 10% v/v glycerol.
Acyl-CoA ligase activity assay: Acyl-CoA ligase activity was determined by measuring the loss of free Coenzyme A (CoA) over time using Ellman's reagent. (Riddles P W, Blakeley R L, & Zerner B (1979) Ellman's reagent: 5,5′-dithiobis(2-nitrobenzoic acid)—a reexamination. Analytical Biochemistry 94(1):75-81.) The enzyme reaction contained 10 mM ATP, 8 mM MgCl2, 3 mM CoA, 0.1 M NaH2PO4, 1 mM EDTA, and 2 mM of the organic acid species. The concentration of AcsA in the reaction was 500 nM. Relative activity was determined by the amount of CoA consumed in 4 min relative to an acetate control.

The test system of the next series is PCC 7002 A^+. As to the kind of experiment: Minimum inhibitory concentration, spontaneous acrylic acid-tolerant mutant. The class given is cell-based, Synechococcus sp. PCC 7002. How it is done:
as §4

The subject of another series is PCC 7002 acsA::BC. Description: Minimum inhibitory concentration, acsA barcode replacement strain. In kind it is cell-based, Synechococcus sp. PCC 7002. Particulars: Synechococcus, read-out: Minimum inhibitory concentration. How it is done: as §5
In series [5] the test system is PCC 7002 acsA::BC glpK::acsAW49L aadA. Description: Minimum inhibitory concentration, acsAW49L complementation strain. The class given is cell-based, Synechococcus sp. PCC 7002. Particulars: Synechococcus, read-out: Minimum inhibitory concentration. How it is done: as §5
The conditions of series [6]: cited from earlier work.
[7] abbreviates: SP.PCC7942, read-out: Minimum inhibitory concentration.
Setting [8] is: SP.PCC6803, read-out: Minimum inhibitory concentration.
The mark [9] stands for this setting: SP.PCC7002, read-out: Minimum inhibitory concentration.

Consider `O=C(O)CCO` [3HP, 3-hydroxypropionic acid], for which the MIC is 2000 µM (≈ 180 µg/mL) in [1] (setting [7]); greater than 35000 µM in series [2] (setting [8]); 10000 µM (≈ 901 µg/mL) in series [3] (setting [9]); less than 50000 µM in the series on PCC 6803 sll0542::KmR; 15000 µM (≈ 1350 µg/mL) in series [4]. Further, the results for the Minimum inhibitory concentration in series [1] and in [3] were 2000 µM (≈ 180 µg/mL) and 10000 µM (≈ 901 µg/mL), respectively. Further, in the series with PCC 7002 acsA::aadA, the “Increase in MIC on functional deletion of the acsA gene product” value (from here on “Increase in MIC on functional deletion”) is reported as no less than 26 fold. Moreover, the “Concentration at which the ΔacsA mutant was able to grow without inhibition” value in the series on PCC 7002 acsA::aadA (ΔacsA mutant) is recorded as greater than 500 mM. In the series on AcsA, the “Acyl-CoA ligase activity of AcsA towards substrate” value (“Acyl-CoA ligase activity” for short) is given as “has an activity”.

Consider `CC(=O)O` [acetate, reference compound], for which the “Acyl-CoA ligase activity” value in the series with AcsA is “has an activity”.

As for `C=CC(=O)O` [acrylic acid], the MIC in series [1] (setting [7]) amounted to 3 µM (≈ 0.216 µg/mL); in series [2] (setting [8]), 50 µM (≈ 3.6 µg/mL); in series [3] (setting [9]), 25 µM (≈ 1.8 µg/mL); in the series with PCC 7002 A^+ (Synechococcus, Table 1, strain isolated from agar plate containing 5 mM acrylic acid), 7000 µM (≈ 504 µg/mL); against PCC 6803 sll0542::KmR, 70000 µM (≈ 5040 µg/mL); in the series on PCC 7002 acsA::aadA (Synechococcus, read-out: Minimum inhibitory concentration), 70000 µM. Further, the results for the MIC (with PCC 7002 acsA::BC; in [4]; in series [5]) were 70000 µM (≈ 5040 µg/mL), 15 µM (≈ 1.08 µg/mL) and 7000 µM (≈ 504 µg/mL), respectively. Besides, the Minimum inhibitory concentration in series [1] came out at 3 µM (≈ 0.216 µg/mL); in [2], 50 µM (≈ 3.6 µg/mL); in [3], 25 µM (≈ 1.8 µg/mL). Moreover, the Inhibitory concentration result in series [3] (growth by OD730) is recorded as “less than 5 mM”. Further, in [3] (toxicity increasing with decreasing pH), the “pH dependence of toxicity” value is listed as “pH dependent”. Also, the “Increase in tolerance over WT PCC 7002 MIC values” in the series on PCC 7002 A^+ (PCC 7002 A^+ vs WT) is recorded as “about 280 fold”. Also, the “Increase in MIC on functional deletion” value in the series on PCC 7002 acsA::aadA is recorded as no less than 2.800 fold. Moreover, in the series with AcsA, the “Acyl-CoA ligase activity” value was “has an activity”. For the same molecule, the pKa in series [6] is 4.35.

Regarding `CCC(=O)O` [propionic acid], the MIC amounted to 250 µM (≈ 18.5 µg/mL) in series [1] (SP.PCC7942, Table 1, pH of about 8, no increase in OD730, read-out: Minimum inhibitory concentration); 250 µM (≈ 18.5 µg/mL) in series [2] (SP.PCC6803, Table 1, pH of about 8, no increase in OD730, read-out: Minimum inhibitory concentration); 4000 µM (≈ 296 µg/mL) in series [3] (SP.PCC7002, Table 1, pH of about 8, no increase in OD730, read-out: Minimum inhibitory concentration). The values for the Minimum inhibitory concentration in series [1], in series [2] and in series [3] were 250 µM (≈ 18.5 µg/mL), 250 µM (≈ 18.5 µg/mL) and 4000 µM (≈ 296 µg/mL), respectively. Further, the “Increase in MIC on functional deletion” value in the series on PCC 7002 acsA::aadA is reported as no less than 100 fold. In the series with AcsA, the “Acyl-CoA ligase activity” value is on record as “has an activity”.
